Where two headings read alike, the source gives them in different places.
Assays:
[1] = Clinical outcome and toxicity after melphalan full dose in RIC allogeneic HCT (engraftment, chimerism, mucositis, VOD, GVHD); type: in vivo, human
Procedure: (§1) Patients undergoing allogeneic HCT for non-malignant disorders with a uniform RIC regimen that included alemtuzumab, fludarabine and melphalan were enrolled in this study. Full standard dose of melphalan was set as follows: • 140 mg/m^2 in patients having a body weight >10 kg, • 4.7 mg/kg in patients having a body weight <10 kg, and • 70 mg/m^2 in one patient with a radio sensitivity disorder.
(§2) Blood samples were obtained for PK measurement after the administration of test dose and the full standard dose of melphalan. A total of 10 blood samples were obtained around each dose of melphalan: at baseline (5-10 min prior to start of the melphalan infusion of) and then approximately at 5 min, 15 min, 30 min, 45 min, 60 min, 2 hour, 2.5, 4, and 6 hours after the end of the melphalan infusion. Samples were collected on ice and transported to the institution's mass spectrometry laboratory for instant analysis by PS-MS/MS and conventional LC-MS/MS. Patient data collected for analysis included baseline organ function, presence of oral and gastrointestinal mucositis, renal and liver dysfunction including VOD, initial donor chimerism, graft rejection, and acute and chronic GVHD (aGVHD and cGVHD). The Common Terminology Criteria for Adverse Events (CTCAE) version 4.0 was used to evaluate adverse events. Acute and chronic GVHD were assessed by standardized published criteria. See, e.g., Glucksberg H, et al. Transplantation. 1974; 18:295-304 and Filipovich A H, et al. Biol Blood Marrow Transplant. 2005; 11:945-956. Interim analyses were completed after enrollment of 5 patients and 10 patients respectively to validate data following 25% and 50% of intended total patient enrollment. The AUC range that led to full donor chimerism without excess toxicity in majority of patients was selected to be the desired target AUC for full dose adjustment. In patients with baseline impaired organ function, personalized full dose melphalan was adjusted to limit toxicity if test dose PK predicted standard full dose AUC was higher than the desired target AUC range.

[2] = ambient temperature; hydrolyzed to monohydroxymelphalan, then dihydroxymelphalan; cited from earlier work
plasma proteins = details: cited from earlier work
[3] = Melphalan test dose and full dose pharmacokinetics in patients undergoing RIC allogeneic HCT for non-malignant disorders (Bayesian analysis of plasma concentrations); type: in vivo, human; details: for AUC: human, plasma, intravenous
Procedure: as §1
The patients were given a test dose of melphalan (10% of the standard full dose) prior to start of their preparative regimen. Test dose of 10% of the full standard dose was determined to be the lowest dose level that would be measurable for a sufficiently long time interval (0-4h) to allow reliable AUC estimation. Accordingly, the test doses used in this study were 14 mg/m^2, 7 mg/m^2 and 0.47 mg/kg for patients having the standard full doses of 140 mg/m^2, 70 mg/m^2 and 4.7 mg/kg, respectively.
as §2
Melphalan levels were measured by validated PS-MS/MS and LC-MS\MS methods (Mirkou A, etc., J Chromatogr B Analyt Technol Biomed Life Sci. 2009; 877:3089-3096). For the PS-MS/MS method, all samples were analyzed using an automated Paper Spray ion source (Prosolia, Inc. Indianapolis, Ind.) interfaced with a TSQ Quantum Ultra mass spectrometer (Thermo Scientific, San Jose, Calif.) operated in selected reaction monitoring (SRM) mode. XCalibur software was used to control the MS and to process data. Specific precursor/product ions were simultaneously monitored for melphalan and its stable isotopically-labelled internal standard (D8-melphalan) by collision-induced dissociation (CID). Blood samples were prepared by spiking known amounts of melphalan standards and the internal standard into drug free human blood to establish a calibration curve and quality control samples. A small amount of patient's blood […] equilibrated with D8-melphalan solution was deposited on the Paper Spray cartridge and dried. A small volume of solvent optimized to efficiently extract the drug was applied to the paper. A stepwise high voltage (3-5 kV) was then applied inducing an electrospray ionization at the tip of the paper; the solvent evaporates from the droplets generating gas phase ions of the analyte, which then can be detected by a mass spectrometer. […]

[4] = five patients, adjusted full dose
[5] = sixth patient, initial HCT, full dose 0.44 mg/kg
[6] = sixth patient, second HCT, full dose 1.2 mg/kg
[7] = a 4-month infant, normal renal and liver function for age

N[C@@H](Cc1ccc(N(CCCl)CCCl)cc1)C(=O)O [melphalan, 4-[Bis(2-chloroethyl)amino]-L-phenylalanine]
donor chimerism at engraftment [1, 4]: ≥ 99% | patients who developed VOD [1, 4]: None | patients with grade 3 mucositis [1, 4]: all 5 | patients who developed GVHD ([1]; four patients): 15% | patients who developed grade 1 acute GVHD of skin ([1]; human, in vivo): Two | patients who developed limited chronic GVHD ([1]; human, in vivo): two | VOD of the liver or other excessive toxicity [1, 5]: did not develop VOD of the liver or other excessive toxicity | graft outcome [1, 5]: developed secondary graft failure | whole blood donor chimerism [1, 5]: 79% | VOD of the liver or other excessive toxicity [1, 6]: without developing VOD of the liver or other excessive toxicity | donor chimerism [1, 6]: 100% | patients who developed VOD of the liver ([1]; standard dose melphalan): Two | patients who developed grade 1 mucositis ([1]; standard dose melphalan): one | patients who developed grade 2 mucositis ([1]; standard dose melphalan): 5 patients | patients who developed grade 3 mucositis ([1]; standard dose melphalan): Ten | patients who developed grade 4 mucositis ([1]; standard dose melphalan): one | patients who developed primary graft failure ([1]; standard dose melphalan): None | donor chimerism at engraftment ([1]; standard dose melphalan, all patients): > 95% | stability in blood and plasma [2]: unstable | interactions with immunoglobulins (plasma proteins): negligible | melphalan (covalently) irreversibly bound to plasma proteins (plasma proteins; plasma): Approximately 30% | test dose clearance [3, 7]: 15.7 L/h/70 kg | test dose predicted full dose AUC [3, 7]: 11.1 µg·h/mL | AUC ([3]; 0.44 mg/kg, sixth patient, initial HCT, full dose 0.44 mg/kg (9.3% of standard dose), read-out: AUC achieved): 1100 ng·h/mL | AUC ([3]; 0.47 mg/kg, median and range, patients <10 kg, normal organ function, n=5, dose 0.47 mg/kg, read-out: test dose AUC): 560 ng·h/mL | AUC ([3]; 1.2 mg/kg, sixth patient, second HCT, full dose 1.2 mg/kg (25.5% of standard dose), read-out: actual observed AUC): 3900 ng·h/mL | AUC ([3]; 4.7 mg/kg, infant who developed VOD, read-out: full dose melphalan AUC): 6900 ng·h/mL | AUC ([3]; 4.7 mg/kg, median and range, patients <10 kg, standard dose 4.7 mg/kg, n=6, read-out: full dose AUC): 4800 ng·h/mL | AUC ([3]; 14 mg/m2, median and range, patients >10 kg, normal organ function, n=11, dose 14 mg/m^2, read-out: test dose AUC): 520 ng·h/mL | AUC ([3]; 70 mg/m^2, patient with VOD and diffuse alveolar hemorrhage, ataxia telangiectasia, read-out: full dose melphalan AUC): 5000 ng·h/mL | AUC ([3]; 140 mg/m2, median and range, patients >10 kg, standard dose 140 mg/m2, n=11, read-out: full dose AUC): 5500 ng·h/mL | AUC ([3]; 140 mg/m2, patient with grade 4 mucositis and gastrointestinal bleeding, read-out: full dose AUC (highest melphalan exposure)): 9500 ng·h/mL | AUC ([3]; five patients, adjusted full dose 29% to 70% of standard dose, read-out: actual observed AUC with the adjusted dose): 3600 to 5400 ng·h/mL | AUC ([3]; median and range, 16 patients with normal organ function, read-out: test dose AUC): 550 ng·h/mL | AUC ([3]; median and range, 17 patients who received standard full dose, read-out: full dose AUC): 5500 ng·h/mL | AUC ([3]; median and range, six patients (7 transplants) with impaired organ function, adjusted full dose, read-out: test dose AUC): 840 ng·h/mL | AUC ([3]; median in the 12/17 (70.6%) patients with AUC between 3.5 and 6.5, read-out: full dose AUC): 5200 ng·h/mL | AUC ([3]; median, PK-adjusted full dose, N = 6 (7), read-out: Full dose AUC): 3900 ng·h/mL | AUC ([3]; median, PK-adjusted full dose, N = 6 (7), read-out: Test dose AUC): 840 ng·h/mL | AUC ([3]; median, Standard full dose, N = 16 (16), read-out: Test dose AUC): 550 ng·h/mL

Source: US20220205982A1 (CHILDREN'S HOSPITAL MEDICAL CENTER, priority 2019, published 2022)
